Reference: PubChem BioAssay AID2060902 (Molecular Pharmacology Branch, DTP, NCI, 2025)

Tested on: 485368-065-R3-J5-PDC spheroids with HUVEC/MSC, viability
Assay: Anticancer human tumor 485368-065-R3-J5-PDC patient-derived pancreatic carcinoma cell line growth inhibition [RAS]
Details: for IC50: curve of first compound; for viability, T/C: stronger effect = lower value
Text: RAS pathway inhibitors in Combinations in Complex Spheroids
A high-throughput screen of multi-cell type tumor spheroids was designed to identify active combinations of RAS pathway inhibitors and targeted small molecules. Complex spheroids include a stromal component modeled by human endothelial cells (HUVEC) and fibroblasts modeled by human mesenchymal stem cells (MSCs). The concentration ranges selected for each drug and investigational agent were based upon clinically achievable concentrations if the clinical Cmax of the agent was known.
Compounds. The drugs and investigational agents: abemaciclib (NSC768073), cobimetinib (NSC768068), divarasib (GDC6063, NSC841802), docetaxel (NSC628503), GDC-1971 (RLY-1971, NSC841576), gemcitabine (NSC613327), inavolisib (NSC800729), ipatasertib (NSC767898), KB-0742 (NSC834161), MRTX-1133 (NSC836407), osimertinib (NSC779217), RMC-4630 (NSC839698), RMC-6236 (NSC851965), RMC-6291 (NSC852671), Ro-3306 (NSC812927), sapanisertib (NSC764658), SN-38 (NSC673596), staurosporine (NSC755774), SY5609 (NSC837396), and tovorafenib (DAY101, NSC766906), were obtained from the National Cancer Institute (NCI) Developmental Therapeutics Program Chemical Repository. The FDA-approved anticancer drug set is available from the NCI Developmental Therapeutics Program. […] The stock solutions were prepared in dimethyl sulfoxide (DMSO, Sigma-Aldrich, St. Louis, MO, cat. D2650) at 800-fold the tested concentration and stored at -70 degrees C prior to their use. All drugs and investigational agents were tested over a range starting from a high concentration at or near the clinical Cmax and decreasing in half-log increments. If the clinical Cmax for an agent had not been determined, the highest concentration tested was 10 microM.
Cell Culture. All cells were maintained in an incubator at 37 degrees C and 5% CO2 with 95% humidity. The PDC lines were cultured according to standard operating procedures established by the NCI PDMR. All PDCs were thawed and cultured in Matrigel-coated flasks prepared with a working solution of 1X Ham's F-12 nutrient mix, without supplementation (Invitrogen, Waltham, MA, cat. 11765054), 100 U/mL penicillin-streptomycin (Invitrogen, cat. 15140122), and 2.5% Matrigel (Corning Inc., Corning, NY, cat. 354248) for the first three passages. The 362531-283-R-J2-PDC and 782815-120-R-J1-PDC lines were cultured in 6C/Colon 1B media, which includes advanced DMEM/F-12 (Thermo Fisher Scientific, cat. 12634028), 10 mM HEPES (Thermo Fisher Scientific, cat. 15630080), 1X GlutaMAX supplement (Thermo Fisher Scientific, cat. 35050061), 0.1 mg/mL primocin (InvivoGen, San Diego, CA, cat. ant-pm-2), 10% defined fetal bovine serum, heat inactivated (HyClone Laboratories Inc., Logan, UT, cat. SH30070.03HI), 50% L-WRN conditioned media (ATCC, cat. CRL-3276), 1.25 mM N-Acetyl-L-cysteine (Sigma-Aldrich, cat. A9165), 10 mM nicotinamide (Sigma-Aldrich, cat. N0636), 1X B-27 supplement (Thermo Fisher Scientific, cat. 17504044), 1X N-2 supplement (Thermo Fisher Scientific, cat. 17502048), 50 ng/mL human EGF (Thermo Fisher Scientific, cat. PHG0311), and 10 microM Y-27632 dihydrochloride (Tocris Bioscience, cat. 1254). The K12877-001-R-J1-PDC line was cultured in 6I media, which includes all 6C/Colon 1B media plus 10 ng/mL human FGF-10 (PeproTech, cat. 100-26), 1 ng/mL human FGF-2 (PeproTech, cat. 100-18B), 1 µM prostaglandin E2 (Tocris Bioscience, cat. 2296), […] hydrocortisone (Sigma-Aldrich, cat. H4001), and […] bovine insulin (Sigma-Aldrich, cat. I6634). The K86415-001-R-J1-PDC line was cultured in 6D media, which includes all 6C/Colon 1B media components minus the L-WRN conditioned media. The 485176-168-R4-J1-PDC was cultured in PANC media, which includes all 6C/Colon 1B media plus 100 ng/mL human FGF-10 (PeproTech, cat. 100-26), 500 nM SB-431542 (Selleckchem, cat. S1067), and 10 nM gastrin (Tocris Bioscience, cat. 3006). […]

[1] = second compound 0.000949 µM, first compound 0.0316 µM
[2] = second compound 0.000949 µM, first compound 0.1 µM
[3] = second compound 0.000949 µM, first compound 0.316 µM
[4] = second compound 0.000949 µM, first compound 1 µM
[5] = second compound 0.003 µM, first compound 0.0316 µM
[6] = second compound 0.003 µM, first compound 0.1 µM
[7] = second compound 0.003 µM, first compound 0.316 µM
[8] = second compound 0.003 µM, first compound 1 µM
[9] = second compound 0.00949 µM, first compound 0.0316 µM
[10] = second compound 0.00949 µM, first compound 0.1 µM
[11] = second compound 0.00949 µM, first compound 0.316 µM
[12] = second compound 0.00949 µM, first compound 1 µM
[13] = second compound 0.03 µM, first compound 0.0316 µM
[14] = second compound 0.03 µM, first compound 0.1 µM
[15] = second compound 0.03 µM, first compound 0.316 µM
[16] = second compound 0.03 µM, first compound 1 µM
[17] = second compound 0.0949 µM, first compound 0.0316 µM
[18] = second compound 0.0949 µM, first compound 0.1 µM
[19] = second compound 0.0949 µM, first compound 0.316 µM
[20] = second compound 0.0949 µM, first compound 1 µM
[21] = second compound 0.3 µM, first compound 0.0316 µM
[22] = second compound 0.3 µM, first compound 0.1 µM
[23] = second compound 0.3 µM, first compound 0.316 µM
[24] = second compound 0.3 µM, first compound 1 µM
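Further: spheroids exposed to agents for seven days before readout.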

`C[C@@H](NC(=O)c1ncnc(N)c1Cl)c1ncc(C(=O)Nc2cc(C(F)(F)F)c(Cl)cn2)s1` + CCn1c(-c2cccnc2C(C)OC)c2c3cc(ccc31)N1CCOC(CC(NC(=O)C(C(C)C)N(C)C(=O)C3(F)CCN(C(=O)C#CC(C)(C)N(C)C)CC3)C(=O)N3CCCC(N3)C(=O)OCC(C)(C)C2)C1 gave an IC50 (second compound 0.000949 µM) greater than 10000 nM, an IC50 (second compound 0.003 µM) greater than 10000 nM and an IC50 (second compound 0.00949 µM) greater than 10000 nM. The IC50 (second compound 0.03 µM) was greater than 10000 nM, the IC50 (second compound 0.0949 µM) was greater than 10000 nM and the IC50 (second compound 0.3 µM) was greater than 10000 nM. It also gave a viability, T/C [1] of 107%, a viability, T/C [2] of 102% and a viability, T/C [3] of 106%. It also gave a viability, T/C [4] of 93.6%, a viability, T/C (second compound 0.000949 µM, first compound 3.16 µM) of 92.6% and a viability, T/C (second compound 0.000949 µM, first compound 10 µM) of 86.4%. The viability, T/C [5] was 102%, the viability, T/C [6] was 107% and the viability, T/C [7] was 102%. For the same compound, the viability, T/C [8] was 94.6%, the viability, T/C (second compound 0.003 µM, first compound 3.16 µM) was 106% and the viability, T/C (second compound 0.003 µM, first compound 10 µM) was 80.3%. It also gave a viability, T/C [9] of 102%, a viability, T/C [10] of 110% and a viability, T/C [11] of 103%. It also gave a viability, T/C [12] of 105%, a viability, T/C (second compound 0.00949 µM, first compound 3.16 µM) of 96.5% and a viability, T/C (second compound 0.00949 µM, first compound 10 µM) of 89%. For the same compound, the viability, T/C [13] was 102%, the viability, T/C [14] was 120% and the viability, T/C [15] was 106%. The viability, T/C [16] was 105%, the viability, T/C (second compound 0.03 µM, first compound 3.16 µM) was 107% and the viability, T/C (second compound 0.03 µM, first compound 10 µM) was 94.6%. For the same compound, the viability, T/C [17] was 102%, the viability, T/C [18] was 111% and the viability, T/C [19] was 105%. It also gave a viability, T/C [20] of 96.5%, a viability, T/C (second compound 0.0949 µM, first compound 3.16 µM) of 104% and a viability, T/C (second compound 0.0949 µM, first compound 10 µM) of 76.1%. For the same compound, the viability, T/C [21] was 97.5%, the viability, T/C [22] was 118% and the viability, T/C [23] was 111%. For the same compound, the viability, T/C [24] was 108%, the viability, T/C (second compound 0.3 µM, first compound 3.16 µM) was 106% and the viability, T/C (second compound 0.3 µM, first compound 10 µM) was 79.2%.

For `CCN1CCN(Cc2ccc(Nc3ncc(F)c(-c4cc(F)c5nc(C)n(C(C)C)c5c4)n3)nc2)CC1` + CCn1c(-c2cccnc2C(C)OC)c2c3cc(ccc31)N1CCOC(CC(NC(=O)C(C(C)C)N(C)C(=O)C3(F)CCN(C(=O)C#CC(C)(C)N(C)C)CC3)C(=O)N3CCCC(N3)C(=O)OCC(C)(C)C2)C1, the IC50 (second compound 0.000949 µM) was greater than 1000 nM, the IC50 (second compound 0.003 µM) was 639 nM and the IC50 (second compound 0.00949 µM) was 941 nM. The IC50 (second compound 0.03 µM) was 693 nM, the IC50 (second compound 0.0949 µM) was 888 nM and the IC50 (second compound 0.3 µM) was greater than 1000 nM. For the same compound, the viability, T/C (second compound 0.000949 µM, first compound 0.00316 µM) was 103%, the viability, T/C (second compound 0.000949 µM, first compound 0.01 µM) was 88.8% and the viability, T/C [1] was 103%. It also gave a viability, T/C [2] of 77.9%, a viability, T/C [3] of 63.5% and a viability, T/C [4] of 51.5%. The viability, T/C (second compound 0.003 µM, first compound 0.00316 µM) was 98.4%, the viability, T/C (second compound 0.003 µM, first compound 0.01 µM) was 91.5% and the viability, T/C [5] was 96.4%. For the same compound, the viability, T/C [6] was 77.3%, the viability, T/C [7] was 58.2% and the viability, T/C [8] was 45%. It also gave a viability, T/C (second compound 0.00949 µM, first compound 0.00316 µM) of 96.8%, a viability, T/C (second compound 0.00949 µM, first compound 0.01 µM) of 100% and a viability, T/C [9] of 91.3%. For the same compound, the viability, T/C [10] was 84.7%, the viability, T/C [11] was 60.9% and the viability, T/C [12] was 49.6%. For the same compound, the viability, T/C (second compound 0.03 µM, first compound 0.00316 µM) was 96.8%, the viability, T/C (second compound 0.03 µM, first compound 0.01 µM) was 100% and the viability, T/C [13] was 95.4%. The viability, T/C [14] was 82.6%, the viability, T/C [15] was 70.5% and the viability, T/C [16] was 40.7%. For the same compound, the viability, T/C (second compound 0.0949 µM, first compound 0.00316 µM) was 96.8%, the viability, T/C (second compound 0.0949 µM, first compound 0.01 µM) was 95.1% and the viability, T/C [17] was 96.1%. For the same compound, the viability, T/C [18] was 83.4%, the viability, T/C [19] was 66.3% and the viability, T/C [20] was 48%. For the same compound, the viability, T/C (second compound 0.3 µM, first compound 0.00316 µM) was 96.8%, the viability, T/C (second compound 0.3 µM, first compound 0.01 µM) was 104% and the viability, T/C [21] was 89.3%. For the same compound, the viability, T/C [22] was 88.8%, the viability, T/C [23] was 63.7% and the viability, T/C [24] was 55.8%.
